What was measured:
[1] = test system: claudin-4; assay: Western blotting of claudin-4 in rat small intestine after in situ treatment; format: in vivo
Procedure: (§1) Western blotting was performed by the method described previously with slight modifications. Three male Wistar rats weighing 250 g were prepared to perform an in situ closed-loop method on the small intestine, as mentioned above. A control study, a treatment study, and a pretreatment study were conducted on the first, second, and third rat, respectively. For the control study, only PBS solution (pH 7.4) was administered into the small intestine, and then, the rat was sacrificed, while for the treatment study, SLG-30 was administered for 1 h, and then, the rat was sacrificed without washing the SLG-30 out. The pretreatment study was performed by administrating SLG-30 for 1 h then washing it out with PBS solution (pH 7.4), followed by sacrificing the rat after 4 h. The small intestine (60 cm) of three rats was taken and treated, as mentioned above, for extracting the BBMVs. […]
(§2) The expression levels of proteins from the claudin family, in the homogenate of the small intestine membrane, were evaluated by western blotting. […] The signals were visualized by luminescence imaging (Fujifilm Luminescent Image Analyzer LAS4000 System, Tokyo, Japan). The intensity of each signal was corrected using the values obtained from the β-actin bands, and the relative protein intensity was expressed as the fold change compared to the relative protein intensity in the normal group.

[2] = test system: brush-border membrane vesicles (BBMVs); assay: Membrane fluidity of BBMVs by fluorescence polarization (fluorescence anisotropy); settings: rat BBMVs, 37 °C, SLG-30 0.1-1.0% v/v, vs control, n = 4
Procedure: To prepare BBMVs, we followed the methods as reported previously with a slight modification. Briefly, an in situ small intestinal loop was prepared in each rat, as mentioned above, and then, PBS (pH 7.4) was administered into the loop. The fat was trimmed off from the small intestine and mesentery. Then, the whole small intestine was soaked in ice-cold PBS (pH 7.4). The small intestine was divided into 10 cm segments. Mucosa was scraped out with a slide glass from each of these segments and used for subsequent studies. BBMVs were prepared by the divalent cation precipitation method using MgCl2 in the presence of ethylenebis (oxyethylenenitrilo) tetraacetic acid (EGTA). Briefly, the collected mucosa was homogenized in a buffer containing mannitol (300 mM), EGTA (5 mM), and Tris (pH 7.4) (12 mM) by using a tissue homogenizer. An aqueous solution of 10 mM magnesium chloride was added to the homogenate. The homogenate was centrifuged at 3000× g for 15 min. The supernatant was then centrifuged at 32,000× g for 30 min. The pellet was resuspended in a buffer containing mannitol (300 mM), EGTA (5 mM), and Tris (pH 7.4) (12 mM) by using a 26-G needle. The protein concentration was determined by the BCA method using bovine serum albumin as a standard, and the final concentration was adjusted to 1 mg/ml in each Eppendorf tube. The samples were frozen by liquid nitrogen and kept at −80 °C for further studies.
The BBMVs (100 μg protein) were incubated with 1 μM DPH, with 0.5 μM tma-DPH or with 5 μM DNS-Cl in HEPES-Tris buffer (25 mM HEPES, 5.4 mM KCl, 1.8 mM CaCl2, 0.8 mM MgSO4, 140 mM NaCl, 5 mM glucose, pH 7.4 adjusted by 1 M Tris) in the dark at 37 °C for 30 min [25, 28]. Then, various concentrations (0.1% v/v, 0.25% v/v, 0.5% v/v, and 1.0% v/v) of SLG-30 were added. Then, the samples were incubated in the dark for 1 min at 37 °C. For the control group, the same procedure was carried out by adding the HEPES-Tris buffer only. The fluorescence intensities and the steady-state polarization of fluorescence expressed as the fluorescence anisotropy, r, of the labeled membrane vesicles were measured at 37 °C. The excitation and emission wavelengths were λex = 360 nm, and λem = 430 nm for DPH and tma-DPH and λex = 380 nm and λem = 480 nm for DNS-Cl. The measurements were carried out by using a Hitachi Spectrofluorometer (F-2000 Spectrofluorometer, Hitachi Seisakusho Corp, Yokohama, Japan) equipped with a polarizer set.
The fluorescence anisotropy (r) was calculated using the following equation: r=IV−IH/IV+2IH where IV and IH respectively represent the […] fluorescence intensities to the polarized excitation plane.

[3] = test system: claudin-1; assay: Western blotting of claudin-1 in rat small intestine after in situ treatment; format: in vivo; settings: treatment with 0.5% (v/v) SLG-30 for 1 h, vs control
Procedure: as §1, §2

In the case of CCCCCCCCCCCC(=O)NC(CCC(=O)NCCCCC(NC(=O)CCC(NC(=O)CCCCCCCCCCC)C(=O)O)C(=O)O)C(=O)O (stereo not drawn) [SLG-30, sodium dilauramidoglutamide lysine], the “claudin-4 expression level less than the control” value ([1]; pretreatment study: 0.5% (v/v) SLG-30 for 1 h, washed out, proteins extracted after 4 h) is reported as roughly 45%, the “decrease of the intensity of the claudin-4 band” value ([1]; treatment with 0.5% (v/v) SLG-30 for 1 h, rat small intestine, vs control) is reported as 64% and the “fluorescence anisotropy of tma-DPH (outer lipid bilayers)” value ([2]; 0.5 μM tma-DPH) is reported as “significantly increased”. For the same molecule, the “fluorescence anisotropy of DPH (inner lipid bilayers)” value ([2]; 1 μM DPH) was “slightly decreased”, the “fluorescence anisotropy of DNS-Cl (protein portion)” value ([2]; 5 μM DNS-Cl, p < 0.01) was “significantly reduced” and the “decrease of the intensity of the claudin-1 band” value [3] was 57%.
